Data as given in ChEMBL document CHEMBL1201862, “PubChem BioAssay data set” (2004).
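Cultured in 96-well plates, cells were exposed to test compound for 48 hours across five concentrations. GI50 marks 50% less growth.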 Activity calls are given as the source filed them. Cut-off read from the data, not from the text of the source: active = GI50 up to about 1.1 µM and inactive = higher.

Tests used:
Assay in all cases: NCI anticancer screen, dose series, 48 h
TK-10 = system: TK-10
KM12 = system: KM12
SF-295 = system: SF-295
CCRF-CEM = system: CCRF-CEM
M14 = system: M14
786-0 = system: 786-0
SF-268 = system: SF-268
SK-MEL-2 = system: SK-MEL-2
SR = system: SR
MDA-MB-435 = system: MDA-MB-435
DU-145 = system: DU-145
NCI-H522 = system: NCI-H522
MDA-MB-231 = system: MDA-MB-231
UO-31 = system: UO-31
SNB-19 = system: SNB-19
MDA-N = system: MDA-N
U-251 = system: U-251
K562 = system: K562
OVCAR-3 = system: OVCAR-3
SNB-75 = system: SNB-75

Compound | GI50 (TK-10) | GI50 (KM12) | GI50 (SF-295) | GI50 (CCRF-CEM) | GI50 (M14) | GI50 (786-0) | GI50 (SF-268) | GI50 (SK-MEL-2) | GI50 (SR) | GI50 (MDA-MB-435) | GI50 (DU-145) | GI50 (NCI-H522) | GI50 (MDA-MB-231) | GI50 (UO-31) | GI50 (SNB-19) | GI50 (MDA-N) | GI50 (U-251) | GI50 (K562) | GI50 (OVCAR-3) | GI50 (SNB-75)
O=C1c2cc([N+](=O)[O-])ccc2-c2ccc3c4ccc5c6c(ccc(c7ccc1c2c73)c64)C(=O)c1cc([N+](=O)[O-])ccc1-5 | > 100 µM (inactive) | > 100 µM (inactive) | > 100 µM (inactive) | > 100 µM (inactive) | > 100 µM (inactive) | > 100 µM (inactive) | > 100 µM (inactive) | > 100 µM (inactive) | > 100 µM (inactive) | > 100 µM (inactive) | > 100 µM (inactive) | > 100 µM (inactive) | > 100 µM (inactive) | > 100 µM (inactive) | > 100 µM (inactive) | > 100 µM (inactive) | > 100 µM (inactive) | > 100 µM (inactive) | > 100 µM (inactive) | > 100 µM (inactive)
O=C1C(CN2CCOCC2)CCCC1CN1CCOCC1 (stereo not given) | 3.94 µM (inactive) | 5.98 µM (inactive) | 33.4 µM (inactive) | 0.76 µM (active) | 3.44 µM (inactive) | 1.16 µM (inactive) | 9.77 µM (inactive) | 8.36 µM (inactive) | 5.31 µM (inactive) | 14.4 µM (inactive) | 17.3 µM (inactive) | 0.0597 µM (active) | 5.97 µM (inactive) | 9.73 µM (inactive) | 30.8 µM (inactive) | 4.37 µM (inactive) | 30.1 µM (inactive) | 0.48 µM (active) | 3.1 µM (inactive) | 14 µM (inactive)
Cn1c(=O)c2c3ccccc3n(C)c2n(C)c1=O | > 100 µM (inactive) | > 100 µM (inactive) | > 100 µM (inactive) | > 100 µM (inactive) | > 100 µM (inactive) | > 100 µM (inactive) | > 100 µM (inactive) | > 100 µM (inactive) | > 100 µM (inactive) | > 100 µM (inactive) | > 100 µM (inactive) | > 100 µM (inactive) | > 100 µM (inactive) | > 100 µM (inactive) | > 100 µM (inactive) | > 100 µM (inactive) | > 100 µM (inactive) | > 100 µM (inactive) | > 100 µM (inactive) | 1.26 µM (inactive)
CC(=O)c1c2c(cc3c1CC1(C3)Cc3cc4c(c(C(=O)O)c3C1)CCCC4)CCCC2.CC(N)c1ccccc1 (stereo not given) | 37.5 µM (inactive) | 27 µM (inactive) | 33.7 µM (inactive) | 31.7 µM (inactive) | 28.8 µM (inactive) | 34.4 µM (inactive) | 38.7 µM (inactive) | 28.1 µM (inactive) | 20.3 µM (inactive) | 54.8 µM (inactive) | 49 µM (inactive) | 46.1 µM (inactive) | 10 µM (inactive) | 18.6 µM (inactive) | 46.5 µM (inactive) | 42.1 µM (inactive) | 26.1 µM (inactive) | 36.4 µM (inactive) | 23.6 µM (inactive) | 39.7 µM (inactive)
COc1cc(OC)c(/C=N\Nc2nc3ccccc3c(=O)n2-c2ccccc2)c(OC)c1 | 34.1 µM (inactive) | > 31.6 µM (inactive) | 25.6 µM (inactive) | 14.2 µM (inactive) | 27.3 µM (inactive) | 17.7 µM (inactive) | 34.9 µM (inactive) | 25.4 µM (inactive) | 36.6 µM (inactive) | 24.5 µM (inactive) | 31.3 µM (inactive) | 26.6 µM (inactive) | 23.8 µM (inactive) | > 48.8 µM (inactive) | 24 µM (inactive) | 17.4 µM (inactive) | 32.1 µM (inactive) | 33 µM (inactive) | 23.6 µM (inactive) | 24.9 µM (inactive)
COc1ccc(/C=C(/c2ccccc2)c2c(C)cc(C)c(/C(=C\c3ccc(OC)cc3)c3ccccc3)c2/N=N/c2cc(C)cc(C)c2)cc1 | 21.9 µM (inactive) | 9.64 µM (inactive) | 24.7 µM (inactive) | 8.49 µM (inactive) | 44.6 µM (inactive) | 13.7 µM (inactive) | 39.9 µM (inactive) | 7.74 µM (inactive) | 63.5 µM (inactive) | 14.6 µM (inactive) | 25.6 µM (inactive) | 15 µM (inactive) | 6.76 µM (inactive) | > 67.5 µM (inactive) | 15.5 µM (inactive) | 24 µM (inactive) | 7.33 µM (inactive) | 11.7 µM (inactive) | 4.1 µM (inactive) | 6.92 µM (inactive)
